In BindingDB's records for doi:10.1002/cbic.200400108 (Schering, 2005) one finds IC50 data, which are given here for 18 compounds.

Experiment in all cases: Inhibition Assay
Experiment [1] has as its target Cyclin-dependent kinase 2 (Homo sapiens, UniProt P24941). Conditions: pH 8; 22 °C. An excerpt: (§1) Inhibition assay using CDK and selective kinases such as gsk3, EGFR, c-Kit, InsR and KDR.
The target of experiment [2] is Epidermal growth factor receptor (Homo sapiens, UniProt P00533). The conditions noted are these: pH 7; 22 °C.
Source text: as §1

The target in experiment [3] is Vascular endothelial growth factor receptor 2 (Homo sapiens, UniProt P35968). Conditions: pH 7; 22 °C.
Source text: as §1

In a further experiment the target is Insulin receptor (Homo sapiens, UniProt P06213). Conditions: pH 7.5; 22 °C.
Source text: as §1

The term IC50 denotes the concentration at which inhibition is half-maximal.

Where “and” joins values, the source holds several entries; their conditions need not be identical. Identical values can stand only once. Bounds are passed on as bounds.

Sequence of Insulin receptor (P06213 28-758 limits assumed): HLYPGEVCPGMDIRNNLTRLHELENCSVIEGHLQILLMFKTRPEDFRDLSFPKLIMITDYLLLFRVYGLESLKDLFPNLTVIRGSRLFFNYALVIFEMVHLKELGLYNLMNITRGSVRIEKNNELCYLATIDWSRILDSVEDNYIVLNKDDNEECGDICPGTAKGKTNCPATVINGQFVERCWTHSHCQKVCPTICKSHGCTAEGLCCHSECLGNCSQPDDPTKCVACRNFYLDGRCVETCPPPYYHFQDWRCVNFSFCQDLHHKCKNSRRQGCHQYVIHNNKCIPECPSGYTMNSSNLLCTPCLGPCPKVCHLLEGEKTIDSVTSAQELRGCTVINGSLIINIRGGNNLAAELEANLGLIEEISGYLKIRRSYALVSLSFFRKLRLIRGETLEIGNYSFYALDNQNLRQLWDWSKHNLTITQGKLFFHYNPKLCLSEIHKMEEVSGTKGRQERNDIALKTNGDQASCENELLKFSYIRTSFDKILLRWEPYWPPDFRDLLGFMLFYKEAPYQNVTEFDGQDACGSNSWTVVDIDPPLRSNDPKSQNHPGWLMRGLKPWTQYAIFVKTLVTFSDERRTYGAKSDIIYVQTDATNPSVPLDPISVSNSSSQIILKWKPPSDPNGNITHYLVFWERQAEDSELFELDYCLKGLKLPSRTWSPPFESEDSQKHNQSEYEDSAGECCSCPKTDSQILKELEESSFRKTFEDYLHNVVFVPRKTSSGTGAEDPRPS
Sequence of Insulin receptor (P06213 763-1382 limits assumed): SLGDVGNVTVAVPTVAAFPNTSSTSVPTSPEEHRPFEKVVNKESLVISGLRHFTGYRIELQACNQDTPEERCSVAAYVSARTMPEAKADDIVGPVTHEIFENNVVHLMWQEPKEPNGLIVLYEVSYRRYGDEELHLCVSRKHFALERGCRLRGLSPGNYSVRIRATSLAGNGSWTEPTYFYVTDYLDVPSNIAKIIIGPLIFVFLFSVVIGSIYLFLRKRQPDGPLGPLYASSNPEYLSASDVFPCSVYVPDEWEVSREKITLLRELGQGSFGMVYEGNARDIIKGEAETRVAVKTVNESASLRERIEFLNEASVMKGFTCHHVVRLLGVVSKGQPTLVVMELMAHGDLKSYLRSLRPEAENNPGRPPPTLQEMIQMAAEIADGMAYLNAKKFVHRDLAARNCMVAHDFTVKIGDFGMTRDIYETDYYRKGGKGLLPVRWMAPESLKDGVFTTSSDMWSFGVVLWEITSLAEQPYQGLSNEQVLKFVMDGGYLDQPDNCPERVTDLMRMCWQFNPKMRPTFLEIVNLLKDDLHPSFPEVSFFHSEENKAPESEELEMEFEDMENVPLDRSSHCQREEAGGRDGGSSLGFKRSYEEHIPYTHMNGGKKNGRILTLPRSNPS
Sequence of Epidermal growth factor receptor (P00533 whole entry): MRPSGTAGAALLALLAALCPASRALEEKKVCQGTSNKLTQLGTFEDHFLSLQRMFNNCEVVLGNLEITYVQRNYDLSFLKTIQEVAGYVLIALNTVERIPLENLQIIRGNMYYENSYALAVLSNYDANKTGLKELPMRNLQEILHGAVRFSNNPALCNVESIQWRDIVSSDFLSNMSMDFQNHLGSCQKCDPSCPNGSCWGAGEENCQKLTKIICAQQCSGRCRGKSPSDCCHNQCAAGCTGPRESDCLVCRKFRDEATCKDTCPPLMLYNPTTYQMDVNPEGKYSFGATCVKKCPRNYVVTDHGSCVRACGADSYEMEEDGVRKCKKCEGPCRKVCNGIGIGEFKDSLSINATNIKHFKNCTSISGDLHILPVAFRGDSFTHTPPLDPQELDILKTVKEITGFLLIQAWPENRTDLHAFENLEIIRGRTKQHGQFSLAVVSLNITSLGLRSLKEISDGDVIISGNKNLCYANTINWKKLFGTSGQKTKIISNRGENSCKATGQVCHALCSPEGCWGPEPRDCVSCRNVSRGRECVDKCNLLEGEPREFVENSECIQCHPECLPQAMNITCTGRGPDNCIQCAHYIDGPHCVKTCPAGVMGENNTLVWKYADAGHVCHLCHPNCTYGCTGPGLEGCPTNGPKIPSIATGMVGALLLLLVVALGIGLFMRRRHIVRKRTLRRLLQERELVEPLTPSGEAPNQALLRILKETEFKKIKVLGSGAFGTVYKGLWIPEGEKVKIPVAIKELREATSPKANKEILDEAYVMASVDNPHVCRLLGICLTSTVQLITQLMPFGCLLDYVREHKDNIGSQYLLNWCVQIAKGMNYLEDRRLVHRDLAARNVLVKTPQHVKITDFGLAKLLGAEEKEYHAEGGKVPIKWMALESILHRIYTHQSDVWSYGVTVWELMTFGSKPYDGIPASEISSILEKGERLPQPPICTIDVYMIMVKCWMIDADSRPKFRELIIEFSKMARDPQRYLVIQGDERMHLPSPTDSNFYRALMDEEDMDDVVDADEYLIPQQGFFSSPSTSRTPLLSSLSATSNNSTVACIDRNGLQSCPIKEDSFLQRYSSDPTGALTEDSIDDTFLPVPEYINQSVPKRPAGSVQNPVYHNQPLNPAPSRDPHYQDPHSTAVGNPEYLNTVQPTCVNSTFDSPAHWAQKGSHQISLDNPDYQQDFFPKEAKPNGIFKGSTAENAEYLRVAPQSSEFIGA
Sequence of Vascular endothelial growth factor receptor 2 (P35968 whole entry): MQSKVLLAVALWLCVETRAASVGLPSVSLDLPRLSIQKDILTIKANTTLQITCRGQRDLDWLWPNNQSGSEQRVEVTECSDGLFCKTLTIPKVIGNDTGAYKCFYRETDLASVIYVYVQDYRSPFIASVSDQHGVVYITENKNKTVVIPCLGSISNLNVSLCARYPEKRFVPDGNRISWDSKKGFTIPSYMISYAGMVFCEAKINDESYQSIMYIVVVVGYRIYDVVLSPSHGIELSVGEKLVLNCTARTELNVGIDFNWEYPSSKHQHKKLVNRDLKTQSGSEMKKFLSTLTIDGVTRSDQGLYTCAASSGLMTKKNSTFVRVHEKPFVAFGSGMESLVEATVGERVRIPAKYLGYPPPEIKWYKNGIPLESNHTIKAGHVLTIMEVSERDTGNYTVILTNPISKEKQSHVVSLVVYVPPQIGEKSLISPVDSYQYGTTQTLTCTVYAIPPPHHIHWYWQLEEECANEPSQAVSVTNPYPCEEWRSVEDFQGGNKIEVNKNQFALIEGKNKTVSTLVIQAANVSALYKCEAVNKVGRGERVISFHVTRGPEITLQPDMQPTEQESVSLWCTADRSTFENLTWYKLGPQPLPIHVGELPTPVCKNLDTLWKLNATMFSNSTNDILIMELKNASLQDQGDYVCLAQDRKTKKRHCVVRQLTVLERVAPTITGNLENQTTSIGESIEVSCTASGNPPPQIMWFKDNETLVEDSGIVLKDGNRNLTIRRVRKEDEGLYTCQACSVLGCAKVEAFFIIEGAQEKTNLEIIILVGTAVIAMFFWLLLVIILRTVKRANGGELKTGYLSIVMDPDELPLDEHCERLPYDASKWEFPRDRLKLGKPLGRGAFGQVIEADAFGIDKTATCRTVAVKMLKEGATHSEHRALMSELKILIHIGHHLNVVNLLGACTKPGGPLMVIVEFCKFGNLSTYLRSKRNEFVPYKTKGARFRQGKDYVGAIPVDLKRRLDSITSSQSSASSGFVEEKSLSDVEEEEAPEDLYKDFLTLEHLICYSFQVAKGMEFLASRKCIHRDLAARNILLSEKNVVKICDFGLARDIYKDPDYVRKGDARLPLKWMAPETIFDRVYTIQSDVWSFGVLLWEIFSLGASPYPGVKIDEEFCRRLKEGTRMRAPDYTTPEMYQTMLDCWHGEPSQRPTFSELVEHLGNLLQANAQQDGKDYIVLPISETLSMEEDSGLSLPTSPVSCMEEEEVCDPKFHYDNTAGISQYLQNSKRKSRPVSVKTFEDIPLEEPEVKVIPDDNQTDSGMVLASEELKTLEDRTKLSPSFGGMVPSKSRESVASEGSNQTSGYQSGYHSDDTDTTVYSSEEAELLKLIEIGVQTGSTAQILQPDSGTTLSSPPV

Compound `CN(C)C1CCN(S(=O)(=O)c2ccc3c(c2)C(=C2Nc4ccccc4C2=O)C(=O)N3)CC1` [Indirubin derivative, 36 (X=O)] registered an IC50 in experiment [1] of 20 nM. Still for that read-out and setting: the value for `O=C1Nc2ccccc2/C1=C1/Nc2ccccc2C1=O` [2-[(3Z)-2-oxo-2,3-dihydro-1H-indol-3-ylidene]-2,3-dihydro-1H-indol-3-one] was 2000 nM; that for `CC1(O)C(C2C(=O)Nc3ccc(S(=O)(=O)N4CCC(O)CC4)cc32)=Nc2ccccc21` (stereo unspecified) [Indirubin derivative, 37] was 1600 nM. Consider `CN(C)CCN(C)S(=O)(=O)c1ccc2c(c1)C(=C1Nc3ccccc3C1=O)C(=O)N2` [Indirubin derivative, 22], for which the IC50 in experiment [1] was 10 nM. Still for that read-out and setting: under `CN(C)S(=O)(=O)c1ccc2c(c1)C(=C1Nc3ccccc3C1=O)C(=O)N2` [Indirubin derivative, 8] stands 40 nM. As for `C=CCC1(O)C(C2C(=O)Nc3ccc(S(=O)(=O)N(C)CCN(C)C)cc32)=Nc2ccccc21` (stereo unspecified) [Indirubin derivative, 30b], the IC50 (in experiment [2]; in experiment [3]; against Insulin receptor) was > 10000 nM throughout. For `O=C1Nc2ccc(S(=O)(=O)O)cc2C1=C1Nc2ccccc2C1=O` [Indirubin derivative, 20], the IC50 (in experiment [2]; in experiment [3]; on Insulin receptor) was > 10000 nM in each case. As to `O=C1Nc2ccc(Br)cc2C1=C1Nc2ccccc2C1=O`, the IC50 (in experiment [2]; in experiment [3]; at Insulin receptor) was > 10000 nM in each case. Compound `O=C1Nc2ccc(S(=O)(=O)NCCO)cc2C1=C1Nc2ccccc2C1=O` [Indirubin derivative, 33] showed an IC50 in experiment [1] of 80 nM.

In experiment [1], `CN(C)S(=O)(=O)c1ccc2c(c1)/C(=C1/Nc3ccccc3/C1=N\OCCO[C@@H]1O[C@H](CO)[C@@H](O)[C@H](O)[C@H]1O)C(=O)N2` [Indirubin derivative, 36 (X=NO)] registered an IC50 of 80 nM. Turning to `CN(C)S(=O)(=O)c1ccc2c(c1)C(C1=Nc3ccccc3C1(O)C(O)CO)C(=O)N2` (stereo unspecified) [Indirubin derivative, 31b], the IC50 in experiment [1] was 3000 nM and > 10000 nM. `O=C(O)CCNS(=O)(=O)c1ccc2c(c1)C(=C1Nc3ccccc3C1=O)C(=O)N2` [Indirubin derivative, 34] had an IC50 in experiment [1] of 1500 nM.

For the compound `CN(C[C@H](O)[C@@H](O)[C@H](O)[C@H](O)CO)S(=O)(=O)c1ccc2c(c1)C(=C1Nc3ccccc3C1=O)C(=O)N2` [Indirubin derivative, 35], in experiment [1], the IC50 came out at 450 nM. As to `CN(C)S(=O)(=O)c1ccc2c(c1)C(C1=Nc3ccccc3C1(C)O)C(=O)N2` (stereo unspecified) [Indirubin derivative, 27b], in experiment [1], the concentration for half-maximal inhibition (IC50) is 70 nM and 600 nM. In the case of `CN(C)CCN(C)S(=O)(=O)c1ccc2c(c1)/C(=C1/Nc3ccccc3/C1=N\OCCO[C@@H]1O[C@H](CO)[C@@H](O)[C@H](O)[C@H]1O)C(=O)N2` [Indirubin derivative, 25], in experiment [1], inhibition was half-maximal at 90 nM (IC50). In experiment [1], `CN(C)CCN(C)S(=O)(=O)c1ccc2c(c1)C(c1[nH]c3ccccc3c1N=O)C(=O)N2` (stereo unspecified) [Indirubin derivative, 23] registered an IC50 of 40 nM.

As for `CN(C)CCN(C)S(=O)(=O)c1ccc2c(c1)C(C1=Nc3ccccc3C1(C)O)C(=O)N2` (stereo unspecified) [Indirubin derivative, 28b], the IC50 (in experiment [2]; in experiment [3]; against Insulin receptor) was > 10000 nM in each case. `CC1(O)C(C2C(=O)Nc3ccc(Br)cc32)=Nc2ccccc21` (stereo unspecified) [Indirubin derivative, 26] displayed an IC50 in experiment [1] of 3000 nM.
